Test results reported in the supplement of paper PMC10307832.

Assays:
Assay in all cases: relative viability (nuclei count vs DMSO), 5 days (fraction); higher = more cells survive
Neratinib + Pictilisib = compound: CCOc1cc2ncc(C#N)c(Nc3ccc(OCc4ccccn4)c(Cl)c3)c2cc1NC(=O)/C=C/CN(C)C [Neratinib] + CS(=O)(=O)N1CCN(Cc2cc3nc(-c4cccc5[nH]ncc45)nc(N4CCOCC4)c3s2)CC1 [Pictilisib] (partner 1 µM)
Method in brief: (§1)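 Lung cancer cell lines in 1536-well plates were dosed by pin tool the day after seeding, either with one drug alone or with a fixed anchor-drug dose plus five library-drug doses (not always all listed) in √10 steps. After 5 days, cells were fixed and their nuclei stained in one step (final 0.05% Triton X-100, 1% formaldehyde, 1 ug/ml Hoechst), then counted on 4× images. Relative viability is the nuclei count in treated wells divided by that in vehicle wells. Values are medians of duplicate plates.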

Neratinib + Crizotinib = compound: CCOc1cc2ncc(C#N)c(Nc3ccc(OCc4ccccn4)c(Cl)c3)c2cc1NC(=O)/C=C/CN(C)C [Neratinib] + C[C@@H](Oc1cc(-c2cnn(C3CCNCC3)c2)cnc1N)c1c(Cl)ccc(F)c1Cl [Crizotinib] (partner 1 µM)
Method in brief: as §1

Neratinib + Alpelisib = compound: CCOc1cc2ncc(C#N)c(Nc3ccc(OCc4ccccn4)c(Cl)c3)c2cc1NC(=O)/C=C/CN(C)C [Neratinib] + Cc1nc(NC(=O)N2CCC[C@H]2C(N)=O)sc1-c1ccnc(C(C)(C)C(F)(F)F)c1 [Alpelisib] (partner 2 µM)
Method in brief: as §1

Neratinib + Lapatinib = compound: CCOc1cc2ncc(C#N)c(Nc3ccc(OCc4ccccn4)c(Cl)c3)c2cc1NC(=O)/C=C/CN(C)C [Neratinib] + CS(=O)(=O)CCNCc1ccc(-c2ccc3ncnc(Nc4ccc(OCc5cccc(F)c5)c(Cl)c4)c3c2)o1 [Lapatinib] (partner 2 µM)
Method in brief: as §1

Neratinib + Bortezomib = compound: CCOc1cc2ncc(C#N)c(Nc3ccc(OCc4ccccn4)c(Cl)c3)c2cc1NC(=O)/C=C/CN(C)C [Neratinib] + CC(C)C[C@H](NC(=O)[C@H](Cc1ccccc1)NC(=O)c1cnccn1)B(O)O [Bortezomib] (partner 0.002 µM)
Method in brief: as §1

Neratinib + Olaparib = compound: CCOc1cc2ncc(C#N)c(Nc3ccc(OCc4ccccn4)c(Cl)c3)c2cc1NC(=O)/C=C/CN(C)C [Neratinib] + O=C(c1cc(Cc2n[nH]c(=O)c3ccccc23)ccc1F)N1CCN(C(=O)C2CC2)CC1 [Olaparib] (partner 8 µM)
Method in brief: as §1

Neratinib + Navitoclax = compound: CCOc1cc2ncc(C#N)c(Nc3ccc(OCc4ccccn4)c(Cl)c3)c2cc1NC(=O)/C=C/CN(C)C [Neratinib] + CC1(C)CCC(c2ccc(Cl)cc2)=C(CN2CCN(c3ccc(C(=O)NS(=O)(=O)c4ccc(N[C@H](CCN5CCOCC5)CSc5ccccc5)c(S(=O)(=O)C(F)(F)F)c4)cc3)CC2)C1 [Navitoclax] (partner 0.5 µM)
Method in brief: as §1

Neratinib + Foretinib = compound: CCOc1cc2ncc(C#N)c(Nc3ccc(OCc4ccccn4)c(Cl)c3)c2cc1NC(=O)/C=C/CN(C)C [Neratinib] + COc1cc2c(Oc3ccc(NC(=O)C4(C(=O)Nc5ccc(F)cc5)CC4)cc3F)ccnc2cc1OCCCN1CCOCC1 [Foretinib] (partner 0.25 µM)
Method in brief: as §1

Neratinib + Linsitinib = compound: CCOc1cc2ncc(C#N)c(Nc3ccc(OCc4ccccn4)c(Cl)c3)c2cc1NC(=O)/C=C/CN(C)C [Neratinib] + C[C@]1(O)C[C@@H](c2nc(-c3ccc4ccc(-c5ccccc5)nc4c3)c3c(N)nccn32)C1 [Linsitinib] (partner 1 µM)
Method in brief: as §1

Neratinib = compound: CCOc1cc2ncc(C#N)c(Nc3ccc(OCc4ccccn4)c(Cl)c3)c2cc1NC(=O)/C=C/CN(C)C [Neratinib]
Method in brief: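 Viability was read as treated-well nuclei divided by vehicle-well nuclei, using the median across plates. Lung cancer cell lines in 1536-well plates were kept overnight at 37 °C, pinned with five √10-spaced library-drug doses, and after 5 days were Hoechst-stained, imaged at 4× and counted in MetaXpress. Plates passed only with control CV below 25% and at least one doubling.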

Cell Line: NCI-H1299
- relative viability (Neratinib + Pictilisib; first compound 0.01 µM): 0.729
- relative viability (Neratinib + Pictilisib; first compound 0.03162 µM): 0.901
- relative viability (Neratinib + Pictilisib; first compound 0.1 µM): 0.805
- relative viability (Neratinib + Pictilisib; first compound 0.3162 µM): 0.459
- relative viability (Neratinib + Pictilisib; first compound 1 µM): 0.28
- relative viability (Neratinib + Crizotinib; first compound 0.01 µM): 0.991
- relative viability (Neratinib + Crizotinib; first compound 0.03162 µM): 1.02
- relative viability (Neratinib + Crizotinib; first compound 0.1 µM): 0.95
- relative viability (Neratinib + Crizotinib; first compound 0.3162 µM): 0.991
- relative viability (Neratinib + Crizotinib; first compound 1 µM): 1.06
- relative viability (Neratinib + Alpelisib; first compound 0.01 µM): 1
- relative viability (Neratinib + Alpelisib; first compound 0.3162 µM): 1.04
- relative viability (Neratinib + Alpelisib; first compound 1 µM): 1.04
- relative viability (Neratinib + Lapatinib; first compound 0.01 µM): 0.969
- relative viability (Neratinib + Lapatinib; first compound 0.03162 µM): 0.957
- relative viability (Neratinib + Lapatinib; first compound 0.1 µM): 0.938
- relative viability (Neratinib + Lapatinib; first compound 0.3162 µM): 0.976
- relative viability (Neratinib + Lapatinib; first compound 1 µM): 1.04
- relative viability (Neratinib + Bortezomib; first compound 0.01 µM): 1.03
- relative viability (Neratinib + Bortezomib; first compound 0.03162 µM): 1
- relative viability (Neratinib + Bortezomib; first compound 0.1 µM): 0.965
- relative viability (Neratinib + Bortezomib; first compound 0.3162 µM): 1.03
- relative viability (Neratinib + Bortezomib; first compound 1 µM): 1.1
- relative viability (Neratinib + Olaparib; first compound 0.01 µM): 0.954
- relative viability (Neratinib + Olaparib; first compound 0.03162 µM): 0.983
- relative viability (Neratinib + Olaparib; first compound 0.1 µM): 0.85
- relative viability (Neratinib + Olaparib; first compound 0.3162 µM): 0.99
- relative viability (Neratinib + Olaparib; first compound 1 µM): 0.974
- relative viability (Neratinib + Navitoclax; first compound 0.01 µM): 1.04
- relative viability (Neratinib + Navitoclax; first compound 0.03162 µM): 1.06
- relative viability (Neratinib + Navitoclax; first compound 0.1 µM): 0.986
- relative viability (Neratinib + Navitoclax; first compound 0.3162 µM): 1.07
- relative viability (Neratinib + Navitoclax; first compound 1 µM): 1.11
- relative viability (Neratinib + Foretinib; first compound 0.01 µM): 1.1
- relative viability (Neratinib + Foretinib; first compound 0.03162 µM): 1.09
- relative viability (Neratinib + Foretinib; first compound 0.1 µM): 1.07
- relative viability (Neratinib + Foretinib; first compound 0.3162 µM): 1.12
- relative viability (Neratinib + Foretinib; first compound 1 µM): 1.12
- relative viability (Neratinib + Linsitinib; first compound 0.01 µM): 0.996
- relative viability (Neratinib + Linsitinib; first compound 0.03162 µM): 1.07
- relative viability (Neratinib + Linsitinib; first compound 0.1 µM): 0.846
- relative viability (Neratinib + Linsitinib; first compound 0.3162 µM): 0.944
- relative viability (Neratinib; 0.01 µM): 1.01
- relative viability (Neratinib; 0.1 µM): 0.89
- relative viability (Neratinib; 0.3162 µM): 1.03
- relative viability (Neratinib; 1 µM): 1.06
